Data published in patent publication US20240110185A1, “INDUCIBLE ANTI-SENSE REPRESSOR SWITCHES AND USES THEREOF” (Trustees of Boston University, priority 2022, published 2024).

Tests used:
[1] = system: mCherry; experiment: Downstream inducible repression with synTF-RD (zinc finger, KRAB, ERT2) and its repressor construct, % mCherry (FIG. 6B); format: cell-based; details: 4-OHT at 0.1, 0.2, 0.5 and 1 μM for d0-d3, 8 days after removal
Excerpt: FIG. 6A-6B show an alternative embodiment of a synTF and construct system for downstream inducible-repression.

[2] = system: mCherry fluorescent reporter; experiment: Inducible anti-sense repressor switch: mCherry reporter repression and recovery in 293T cells stably expressing ZF-VP64-ERT2 synTF and the reporter construct; format: cell-based, human
Procedure: (§1) To evaluate the kinetics of this repressor switch, 293T cells where generated to stably express both the inducible anti-sense repressor and fluorescent reporter. In order to determine whether the repressor switch is able to transiently silence GOIs, the inventors treated reporter cells with. 1 uM 4-OHT and measured mCherry reporter fluorescence at 1 day, 2 days, and 3 days. In order to determine whether the repressor switch transiently represses GOIs, the inventors removed 4-OHT and measured fluorescence expression after 2 days, 4 days, 6 days, and 8 days (FIG. 5A-5B).
The expression of mCherry was measured at days 0, d1, d2, d3, d4, d6, d7, d9 and d11.
as §1, with “To assess transcriptional repression of the GOI, inducible antisense repressor construct comprising (i) a first transcriptional unit comprising a constitutively active promoter operatively linked to a mCherry fluorescent reporter GOI was used, and a (ii) a second transcriptional unit comprising an inverted DNA binding motif (DBM) comprising a zinc finger binding array operatively linked to a minimal promoter (FIG. 4A). To” for “To”, “with 0.1” for “with. 1”
To assess the inducible transcriptional repressor system, the inventors initially used two vectors. One vector comprises a synthetic inducible repressor construct as defined herein, which compromises a gene of interest (GOI) operatively linked to a constitutive promoter, and downstream, a second transcription unit comprising, in brief, a second promoter, and a binding site for the synTF (e.g., DBM or the DNA binding domain). The second vector encoding the inducible synTF (e.g., small molecule induced synTF) comprising a transcriptional activation domain, DNA-binding domain (DBD) and a nuclear localization domain (or cytosolic domain). First, to construct the nucleic acid encoding the small-molecule inducer synTF, one of our artificial zinc finger proteins was attached (see U.S. Pat. No. 10,138,493 B2 and Patent Application No. US 2020/0377564 A1, incorporated herein by reference) to both a VP64 transcriptional domain and ERT2 domain (FIG. 2A). To assess the inducer-dependent, synTF mediated transcriptional repression of the GOI, an engineered construct comprising a constitutively expressed mCherry fluorescent reporter, operatively connected to a constitutive promoter was created, which had, downstream a minimal promoter and an inverted zinc finger binding array (ZF-BD) (also referred to as a DNA binding motif (DBM) (FIG. 4A).
To evaluate the kinetics of this inducible antisense repressor switch, 293T cells were transduced with the vector encoding the synTF and the inducible transcriptional repressor construct to generate a reporter cell line that stably expresses both the inducible synTF and fluorescent reporter. To determine whether the repressor switch was able to transiently silence the GOI mRNA, the cells were treated with three concentrations of 4-OHT and mCherry reporter was measured fluorescence at 1 day, 2 days, and 3 days (FIG. 5A-5B). Next, to determine whether the inducible synTF repressor switch could transiently represses the expression of the GOI, 4-OHT was removed and measured fluorescence expression after 2 days, 4 days, 6 days, and 8 days (FIG. 5B).

[3] = system: mCherry; experiment: Inducible-repressor circuit with RZ and synTF-MNAS, % mCherry (FIG. 11); format: cell-based; details: 4-OHT d0-d3 at 0.1, 0.2, 0.5 and 1 μM, duplicates
Excerpt: FIG. 10 is a schematic of an exemplary synTF comprising VP64, and an exemplary inducible anti-sense repressor construct comprising, in the second transcription unit, a ribosome entry site (RZ), and a nucleic acid sequence that is the antisense to a portion of the nucleic acid encoding the GOI, which are both 5′ to the second promoter and the DBD. In some embodiments, the antisense to the portion of the GOI, herein referred to as “synTF-mediated nucleic acid sequence” or “synTF-MNAS” can be replaced by any RNAi molecule known to persons of ordinary skill in the art.

[4] = system: mCherry GOI; experiment: Inducible-repressor circuit with spacer and second promoter, % mCherry and FACS (FIG. 8, FIG. 9); format: cell-based
Excerpt: FIG. 7 is a schematic of an exemplary inducible-repressor circuit (top panel), and a second exemplary inducible-repressor circuit (bottom panel), where the second inducible-repressor circuit is modified to comprise, in the second transcription unit, a spacer and a second promoter, and the DBD, each if which are in the antisense direction to the first transcription unit comprising the first promoter and GOI.

`CC/C(=C(\c1ccc(O)cc1)c1ccc(OCCN(C)C)cc1)c1ccccc1` [4-OHT, 4-hydroxytamoxifen] was tested, and the “repression of mCherry compared with the synTF and construct of FIG. 5B” value [1] was “milder repression”, the “reporter fluorescence expression after 3 days of 4-OHT” value ([2]; 0.1 uM 4-OHT, 293T reporter cells, after 3 days) was “strongly repressed” and the “mCherry expression in the presence of 4-OHT, of normal levels” value ([2]; 4-OHT at 0.1 μM, 0.2 μM and 0.5 μM for d0-d3, 293 cells with synTF and construct of FIG. 2A-2B) was “about 20%”. The “mCherry levels 8 days after the removal of 4-OHT” value ([2]; 4-OHT at 0.1 μM, 8 days after removal) was “back to normal levels”, the “reporter fluorescence expression after 4-OHT removal” value ([2]; 8 days post 4-OHT removal) was “restored” and the “mCherry expression restored, of baseline levels” value ([2]; 8 days post 4-OHT removal, 0.1 M 4-OHT treatment (so in the source)) was 100%. The “repression of mCherry expression” value ([2]; all three 4-OHT concentrations, after 3 days, 293T reporter cells) was “approx. 80%”, the “mCherry expression after the removal of 4-OHT” value ([2]; d4-d11, after 3 days of 4-OHT) was “significantly increased” and the “repression of mCherry compared with the construct in the top panel of FIG. 7” value [3] was “greater repression”. The “repression of mCherry compared with the construct in the top panel of FIG. 7” value ([4]; 4-OHT d0-d3 at 0.1 μM, 0.2 M (so in the source), 0.5 μM and 1 μM, duplicates, spacer and second promoter circuit) was “greater repression” and the “mCherry expression, FACS flow plot” value ([4]; 2 days after addition of 1 uM 4-OHT, decreased from 87.9% before) was 69.8%.
